Measurements reported in patent publication US5646146A, “Heterocyclic compounds and their preparation and use” (Novo Nordisk A/S, priority 1993, dated 1997).
pIC50: −log10 of the molar value.

Assays:
[1] = tested on: glycine site coupled to the NMDA ionophore complex; settings: literature citations; cited from earlier work
[2] = tested on: convulsions induced by i.c.v. infusion of NMDA; assay: Convulsions induced by i.c.v. infusion of NMDA, TV50 (Test 2); assay type: in vivo, mouse (male NMRI); settings: dose infused i.c.v. per minute with NMDA to increase time to onset of clonic seizures by 50%
Description: The glycine antagonists are co-infused with NMDA and their anti-convulsive effect is measured by determining a) the TV50 value which represents the dose (μg/kg) of the glycine antagonist that has to be infused per minute in order to increase time to onset of clonic seizures by 50%, b) the ED50 value which represents the dose (μg/kg) of the glycine antagonist that has to be infused per minute in order to protect 50% of the animals against clonic seizures for 150 seconds after the start of i.c.v. infusion.
Convulsions induced by i.c.v. infusion of NMDA (Test 2 & 3)
58.84 μg/ml (1 nmol in 2.5 μl) of NMDA (Sigma) dissolved in 0.9% NaCl is co-infused i.c.v. with a glycine antagonist at a speed of 5 μl/min. Infusion is performed through a cannula placed 1 mm posterior and 1 mm lateral to the Bregma point. The cannula is injected 4.3 mm into the skull of male NMRI mice weighing 25 g (range 23-27 g). Placement and length of the cannula into the skull is fixed by a plate positioned 4.3 mm from the point of the cannula. The infusion is stopped after the appearance of clonic seizures in all extremities or 150 seconds after the start time of the infusion. At least 5 doses of each glycine antagonist are tested using 8 mice per dose.

[3] = target: T1, glycine site of the NMDA receptor complex (Rattus norvegicus, UniProt P35439); assay: In vitro [3H]-glycine binding to rat brain membranes (Test 1); set-up: species or system rat (male Wistar); settings: 50% displacement of specific [3H]-glycine binding; 50 nM [3H]-glycine, 4° C., 30 min
T1 construct: Crude synaptic (P2) membranes are prepared from rat forebrains; from tissue; host or cells: rat forebrain (male Wistar), crude synaptic (P2) membranes, Triton X-100 washed
Description: The compounds according to the invention were tested as regards the affinity for one or more of the different types of excitatory amino acid receptors and studied in simple radioligand binding experiments. In essence, the method involves incubation of a particular selected radio-labelled ligand and the particular specific substance to be investigated with brain homogenates which contain the receptor. Measurement of receptor occupancy is made by determination of the specific radioactivity bound to the homogenate.
This will make them useful in the treatment of any of the numerous indications caused by hyperactivity of excitatory amino acids.
The glycine site binding activity of these compounds of the present invention can be illustrated by determining their capability for displacing radioactively labelled glycine from the glycine site.
The displacement activity of the compounds may be shown by determining the IC50 value which represents the concentration (μM) which causes a displacement of 50% of the specific binding of [^3 H]-glycine.
In vitro [^3 H]-Glycine Binding to Rat Brain Membranes (Test 1)
The membrane preparation and assay of specific [^3 H]-glycine binding is based upon methodology described by Haring et al. (1991) J. Neurochem. 57, 323-332 and Yoneda et al. (1991) J. Neurochem. 55, 237-244.
All steps are performed at 4° C. Buffers are prepared fresh each week from distilled, deionized water and filtered through sterile 0.2 μm membranes to eliminate artifacts due to microbial contamination. Crude synaptic (P2) membranes are prepared from rat forebrains freshly dissected from male Wistar rats and washed 4 times with low ionic strength buffer. On the day of the assay these preparations are additionally washed with buffer containing a low concentration (0.08% g/g) of Triton X-100, and then twice more in the absence of this detergent. The procedure is aimed at the disruption of synaptic membrane vesicles and removal of endogenous amino acids.
Specific radioligand binding is measured by incubating membranes (400-600 μg/ml of protein) with 50 nM [^3 H]-glycine in the presence or absence of 1 mM of unlabelled glycine at 4° C. for 30 min. Free and bound ligand are separated by centrifugation. Each pellet is rinsed 2× and bound radioactivity measured by liquid scintillation counting. Test substances are substituted for Unlabelled glycine in the assay.

Row | pIC50 [3] | SMILES | activity at the glycine site (agonist/antagonist, in words) [1] | Test 2 TV50 [2]
1 | – | N#Cc1cc2[nH]c(=O)c(=O)[nH]c2cc1[N+](=O)[O-] [CNQX, 6-cyano-7-nitroquinoxaline-2,3-dione] | weak antagonists | –
2 | – | C[C@@H](N)C(=O)O [D-alanine] | strong agonist activity | –
3 | – | N[C@@H]1CONC1=O [D-cycloserine] | partial agonists | –
4 | – | N[C@H](CO)C(=O)O [D-serine] | strong agonist activity | –
5 | 6.04 | O=C1c2ccccc2-c2[nH]c(=O)c(=O)[nH]c21 [Example 2, 9H-Indeno[1,2-b]pyrazine-2,3,9(1H,4H)-trione] | – | 44 µg/kg
6 | 5.43 | O=c1cnc2c([nH]1)-c1ccccc1C21OCCO1 [Example 6, 9H-Indeno[1,2-b]pyrazine-3,9(4H)-dione 9-ethylene acetal] | – | –
7 | – | O=C(O)c1cc(O)c2ccc(Cl)cc2n1 [Example 7-Cl-Kyn, 7-chloro-kynurenic acid] | quite strong antagonists | –
8 | 6.04 | O=c1[nH]c2c([nH]c1=O)C(O)c1ccccc1-2 (stereo not shown) [Example 11, 9-Hydroxy-9H-indeno[1,2-b]pyrazine-2,3(1H,4H) -dione] | – | 5.0 µg/kg
9 | 6.82 | CN1CCN(C2c3ccccc3-c3[nH]c(=O)c(=O)[nH]c32)CC1 (stereo not shown) [Example 18, 9-(4-Methyl-1-piperazinyl)-9H-indeno[1,2-b]pyrazine-2,3(1H,4H)-dione] | – | 4.5 µg/kg
10 | – | NC1CCN(O)C1=O (stereo not shown) [HA-966, 3-amino-1-hydroxy-2-pyrrolidone] | weak antagonists | –
